# Measurements reported in US20250170099A1, “TREATMENT OF POSTNATAL DEPRESSION” (GH RESEARCH IRELAND LIMITED, priority 2022, published 2025).
# Test system: patients with postpartum depression (PPD)
# Test: Open-label clinical trial of inhaled 5-MeO-DMT in postpartum depression (one patient, IDR 6 mg then 12 mg)
# Experimental: The single-arm, open-label clinical trial will involve 15 adult female patients with clinically diagnosed postpartum depression (PPD).
# The second dose (12 mg) will only be administered if: • a. […] The 6 mg dose was safe and well-tolerated according to the investigator, • c. Any psychoactive effects (PsE) of the prior dose have subsided, and • d. Pre-dose vital parameters and forced expiratory volume in one second (FEV1) are in normal range, or if outside of the normal range, are not clinically significant according to the investigator. • 3. Similarly, a third dose (18 mg) will only be administered if: • a. […] The 12 mg dose was safe and well-tolerated according to the investigator, and • c. Any PsE of the prior dose have subsided, and • d. Pre-dose vital parameters and forced expiratory volume in one second (FEV1) are in normal range, or if outside of the normal range, are not clinically significant according to the investigator.
# The patients will be assessed for a peak psychedelic experience (based on a patient-scored visual analogue scale, the PE scale), sedation, and other endpoints after dosing. Follow-up visits are planned for Day 1, and Day 7 after the dosing day.
structure (smiles),measurement,setting,value
COc1ccc2[nH]cc(CCN(C)C)c2c1 [5-MeO-DMT],BPRS excitement improvement,Day 7,1
same,BPRS excitement score,Day 7,1
same,BPRS grandiosity improvement,Day 7,0
same,BPRS grandiosity score,Day 7,1
same,BPRS guilt feelings improvement,Day 7,5
same,BPRS guilt feelings score,Day 7,1
same,BPRS hallucinatory behaviour improvement,Day 7,0
same,BPRS hallucinatory behaviour score,Day 7,1
same,BPRS hostility improvement,Day 7,0
same,BPRS hostility score,Day 7,1
same,BPRS mannerisms and posturing improvement,Day 7,0
same,BPRS mannerisms and posturing score,Day 7,1
same,BPRS motor retardation improvement,Day 7,0
same,BPRS motor retardation score,Day 7,1
same,BPRS somatic concern improvement,Day 7,5
same,BPRS somatic concern score,Day 7,1
same,BPRS suspiciousness improvement,Day 7,0
same,BPRS suspiciousness score,Day 7,1
same,BPRS tension improvement,Day 7,5
same,BPRS tension score,Day 7,1
same,BPRS uncooperativeness improvement,Day 7,0
same,BPRS uncooperativeness score,Day 7,1
same,BPRS unusual thought content improvement,Day 7,0
same,BPRS unusual thought content score,Day 7,1
same,MADRS apparent sadness improvement,Day 7,5
same,MADRS apparent sadness score,Day 7,0
same,MADRS concentration difficulties improvement,Day 7,0
same,MADRS concentration difficulties score,Day 7,0
same,MADRS inability to feel improvement,Day 7,3
same,MADRS inability to feel score,Day 7,0
same,MADRS inner tension improvement,Day 7,4
same,MADRS inner tension score,Day 7,1
same,MADRS lassitude improvement,Day 7,3
same,MADRS lassitude score,Day 7,0
same,MADRS pessimistic thoughts improvement,Day 7,4
same,MADRS pessimistic thoughts score,Day 7,0
same,MADRS reduced appetite improvement,Day 7,0
same,MADRS reduced appetite score,Day 7,0
same,MADRS reduced sleep improvement,Day 7,5
same,MADRS reduced sleep score,Day 7,0
same,MADRS reported sadness improvement,Day 7,4
same,MADRS reported sadness score,Day 7,0
same,MADRS suicidal thoughts improvement,Day 7,0
same,MADRS suicidal thoughts score,Day 7,0
same,BIMF Adjustment % improvement,Day 7 vs Day 0,20.00%
same,BIMF Adjustment Δ,Day 7 vs Day 0,1
same,BIMF Infant Care % improvement,Day 7 vs Day 0,0.00%
same,BIMF Infant Care Δ,Day 7 vs Day 0,0
same,BIMF Management % improvement,Day 7 vs Day 0,18%
same,BIMF Management Δ,Day 7 vs Day 0,5
same,BIMF Mother-Child Interaction Δ,Day 7 vs Day 0,2
same,BIMF Psychological Well-being Δ,Day 7 vs Day 0,9
same,BIMF Self-Care % improvement,Day 7 vs Day 0,44%
same,BIMF Self-Care Δ,Day 7 vs Day 0,4
same,BIMF Social Support Δ,Day 7 vs Day 0,1
same,BIMF item 1 Δ,Day 7 vs Day 0,0
same,BIMF item 2 Δ,Day 7 vs Day 0,2
same,BIMF item 3 Δ,Day 7 vs Day 0,0
same,BIMF item 4 Δ,Day 7 vs Day 0,0
same,BIMF item 5 Δ,Day 7 vs Day 0,1
same,BIMF item 6 Δ,Day 7 vs Day 0,0
same,BIMF item 7 Δ,Day 7 vs Day 0,0
same,BIMF item 8 Δ,Day 7 vs Day 0,0
same,BIMF item 9 Δ,Day 7 vs Day 0,1
same,BIMF item 10 Δ,Day 7 vs Day 0,1
same,BIMF item 11 Δ,Day 7 vs Day 0,1
same,BIMF item 12 Δ,Day 7 vs Day 0,0
same,BIMF item 13 Δ,Day 7 vs Day 0,1
same,BIMF item 14 Δ,Day 7 vs Day 0,0
same,BIMF item 15 Δ,Day 7 vs Day 0,1
same,BIMF item 16 Δ,Day 7 vs Day 0,2
same,BIMF item 17 Δ,Day 7 vs Day 0,0
same,BIMF item 18 Δ,Day 7 vs Day 0,1
same,BIMF item 19 Δ,Day 7 vs Day 0,1
same,BIMF item 20 Δ,Day 7 vs Day 0,−1
same,BIMF total score Δ,Day 7 vs Day 0,13
same,time to clinical remission,after administration,≤ 2 h
same,time to clinical response,after administration,≤ 2 h
same,BPRS anxiety improvement,discharge,6
same,BPRS anxiety score,discharge,1
same,BPRS blunted affect improvement,discharge,0
same,BPRS blunted affect score,discharge,1
same,BPRS conceptual disorganization improvement,discharge,0
same,BPRS conceptual disorganization score,discharge,1
same,BPRS depressive mood improvement,discharge,5
same,BPRS depressive mood score,discharge,1
same,BPRS disorientation improvement,discharge,0
same,BPRS disorientation score,discharge,1
same,BPRS emotional withdrawal improvement,discharge,4
same,BPRS emotional withdrawal score,discharge,1
same,BPRS excitement improvement,discharge,1
same,BPRS excitement score,discharge,1
same,BPRS grandiosity improvement,discharge,0
same,BPRS grandiosity score,discharge,1
same,BPRS guilt feelings improvement,discharge,5
same,BPRS guilt feelings score,discharge,1
same,BPRS hallucinatory behaviour improvement,discharge,0
same,BPRS hallucinatory behaviour score,discharge,1
same,BPRS hostility improvement,discharge,0
same,BPRS hostility score,discharge,1
same,BPRS mannerisms and posturing improvement,discharge,0
same,BPRS mannerisms and posturing score,discharge,1
same,BPRS motor retardation improvement,discharge,0
same,BPRS motor retardation score,discharge,1
same,BPRS somatic concern improvement,discharge,5
same,BPRS somatic concern score,discharge,1
same,BPRS suspiciousness improvement,discharge,0
same,BPRS suspiciousness score,discharge,1
same,BPRS tension score,discharge,1
same,BPRS uncooperativeness improvement,discharge,0
same,BPRS uncooperativeness score,discharge,1
same,BPRS unusual thought content improvement,discharge,0
same,BPRS unusual thought content score,discharge,1
same,vital parameters,shortly after administration,"temporary, clinically non-relevant increase in heart rate and blood pressure"
